According to patent publication US20170151240A1, “F10 Inhibits Growth of PC3 Xenografts and Enhances the Effects of Radiation Therapy” (WAKE FOREST UNIVERSITY, priority 2014, published 2017):

Tests used:
PC3 cells = assay: Clonogenic survival assay; type: cell-based, human; conditions: 72 h treatment; for decrease of colony formation relative to control: 10 μM
Text: (§1) Other anti-angiogenic/anti-tumor agents that can be used in conjunction with the compounds, compositions, methods and combination therapy of the present invention include: SD-7784 (Pfizer, USA); cilengitide. […]

[1] = once daily, three times per week; higher doses lethal; cited from earlier work
[2] = molecular target: T1, thymidylate synthase (TS) (Homo sapiens, UniProt P04818); assay: TS catalytic activity assay in treated PC3 cells; type: cell-based; conditions: 5-FU 10^−6 M
T1 construct: endogenous in cells; host or cells: PC3 (human prostate cancer cell line, ATCC)
T1 sequence (P04818 2-313 limits assumed): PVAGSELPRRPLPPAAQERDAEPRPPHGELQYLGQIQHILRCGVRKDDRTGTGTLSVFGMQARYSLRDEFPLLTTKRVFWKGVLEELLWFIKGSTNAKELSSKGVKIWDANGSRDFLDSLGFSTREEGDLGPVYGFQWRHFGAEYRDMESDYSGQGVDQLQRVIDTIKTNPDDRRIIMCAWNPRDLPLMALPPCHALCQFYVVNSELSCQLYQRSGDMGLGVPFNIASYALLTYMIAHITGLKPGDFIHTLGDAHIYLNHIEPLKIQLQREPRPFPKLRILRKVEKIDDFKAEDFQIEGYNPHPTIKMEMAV
Text: as §1

In the case of `O=c1[nH]cc(F)c(=O)[nH]1` [5-FU, 5-fluorouracil], the “PC3 cell colony formation” value (PC3 cells; 1 μM) is reported as “no effect”, the “decrease of colony formation relative to control” value (PC3 cells) is reported as under 50% and the “decrease of colony formation relative to control” value (PC3 cells; listed as 5FU) is reported as “less than 50%”. For the same molecule, the maximum tolerated dose [1] was 45 mg/kg/dose, the “TS activity relative to control” value ([2]; 8 and 16 h) was “increased” and the TS activity ([2]; 48 h timepoint) was about 50 % control.
